Measurements reported in US20130266590A1, “DIMERIC IAP INHIBITORS” (NOVARTIS AG, priority 2010, published 2013).

Columns and labels:
XIAP-BIR3 = XIAP-BIR3 (Homo sapiens, UniProt P98170); assay: Biacore SPR solution competition binding assay vs smac7mer peptide, XIAP-BIR3; settings: SPR competition with captured smac7mer peptide; 100 nM XIAP-BIR3; 25° C.; read-out: XIAP-BIR3 Binding Biacore (Competitive) EC50
From the text: (§1) The compounds described herein above were profiled using a cellular assay (using Panc3.27 tumor cells) and a binding assay to determine the competition between the compounds of the present invention and smac7mer peptide for XIAP-BIR3 and cIAP1-BIR3 binding groove occupancy.
(§2) The present method includes utility of a Surface plasmon resonance (SPR)-based biosensor (Biacore™, GE Healthcare, Uppsala, Sweden) to examine competition between the compounds of the present invention and smac7mer peptide for XIAP-BIR3 and cIAP1-BIR3 binding groove occupancy.
(§3) Biacore™ utilizes the phenomenon of surface plasmon resonance (SPR) to detect and measure binding interactions. In a typical Biacore experiment, one of the interacting molecules is immobilized on a flexible dextran matrix while the interacting partner is flowed over the derivatized surface. A binding interaction results in an increase in mass on the sensor surface and a corresponding direct change in the refractive index of the medium in the vicinity of the sensor surface. Changes in refractive index or signal are recorded in resonance units (R.U.) Signal changes due to association and dissociation of complexes are monitored in a non-invasive manner, continuously and in real-time, the results of which are reported in the form of a sensorgram.
(§4) Biacore™ T100 (GE Healthcare, Uppsala, Sweden) was used to conduct all experiments reported herein. Sensor surface preparation and interaction analyses were performed at 25° C. Buffer and Biacore reagents were purchased from GE Healthcare. Running buffer containing 10 mM Hepes, pH7.4, 150 mM sodium chloride, 1.25 mM Dithiothreitol, 2% Dimethyl sulfoxide and 0.05% polysorbate 20 was utilized throughout all experiments.
(§5) Biotinylated smac7mer peptide was diluted to 10 nM in running buffer and captured onto a sensor surface pre-derivatized with streptavidin (sensor chip SA) towards peptide surface densities in the range 40-100 R.U. Peptide captured surfaces were blocked with 500 μM PEO2-Biotin (Thermo Scientific).
(§6) Interaction analyses were performed by first equilibrating each compound within a six point seven fold compound dilution series in the range 1 μM to 0.06 nM with either 100 nM XIAP-BIR3 or 6 nM cIAP1-BIR3 for at least one hour during instrument start-up procedures. Protein compound mixtures were then injected over reference and smac7mer peptide surfaces in series for 60 seconds at a flow-rate of 60 μL/min. Surface regeneration was performed at the end of each analysis cycle by a 30 second injection of 10 mM Glycine, pH 2.5, 1M Sodium Chloride, 0.05% polysorbate 20. Additionally, control compound samples and control XIAP-BIR3 or cIAP1-BIR3 samples were prepared and run at regular intervals to monitor surface and assay performance.
(§7) Data analyses were carried out using Biacore™ T100 evaluation software v2.0 to validate assay quality. Binding level report points were plotted versus logarithmic compound concentration values and analyzed in Graphpad prism 5 via non-linear regression using a one-site competition model. EC50 values were generated and used as a measure of inhibitor potency.

Panc3.27 tumor cells = assay: Cellular assay: Panc3.27 tumor cell proliferation (Cell Titer Glo); assay type: cell-based; settings: Panc3.27 cells, 4000 cells per well, 72 hour growth, CTG readout, percent control growth; read-out: PANC proliferation IC50
Experimental: as §1
Cellular Assay—Treatment of Panc3.27 Tumor Cells with Dimeric IAP Antagonists
On day one adherent Panc3.27 cells are plated into two 96-well, clear, flat bottom plates. All wells in row A contain 90 uL of media. All wells in rows B-G contain a total volume of 90 uL per well and 4000 cells per well for Panc3.27 cell lines. Plates are then incubated overnight for 18 hours at 37° C., 5% CO2.
On day two cells are treated with the compounds of formula M-L-M′. Treatments are done in triplicate. The compounds are first serially diluted in DMSO and then added to media giving a final concentration of 0.2% DMSO when added to cells. Cells are treated with 10 uL of serially diluted compounds of formula M-L-M′ at a final concentration of 1000 nM, 200 nM, 40 nM, 8 nM, 1.6 nM, 0.32 nM, 0.06 nM, 0.013 nM, 0.0026 nM, and one untreated well. Plate two is used as a time zero plate.
To measure cell viability 50 uL of Cell Titer Glo (CTG) solution is added to row A, media only and B, cells and media. CTG is purchased from Promega Corporation catalog number G7573. The solution is prepared according to manufacturer's instructions. CTG measures the amount of ATP released from viable cells that is proportional to the number of cells in each well. After incubating for ten minutes with CTG plates are measured on a luminescent reader at 700 nm wavelength. Read time is approximately one second per well for a 96-well plate.
On day five 50 uL of CTG is added to plate one, rows A-G, incubated for 10 minutes at room temperature and read on a luminescent reader. Raw data is adjusted to account for the time zero plate as well as background noise. Triplicate values are averaged and percent control growth is calculated. Percent control growth is calculated using the following logical test: If well read data point (a) is greater than time zero data point (t=0), then 100*[(a)−(t=0)]/[(72 hour total growth)−(t=0)], OR 100*[(a)−(t=0)]/[(t=0)]. Data is represented by line graph with the concentration of compound on the x axis and percent control growth on the y axis.

cIAP1-BIR3 = cIAP1-BIR3 (Homo sapiens, UniProt Q13490); assay: Biacore SPR solution competition binding assay vs smac7mer peptide, cIAP1-BIR3; settings: SPR competition with captured smac7mer peptide; 6 nM cIAP1-BIR3; 25° C.; read-out: CIAP-BIR3 Binding Biacore (Competitive) EC50
Chain of cIAP1-BIR3 (Q13490 253-363 limits assumed): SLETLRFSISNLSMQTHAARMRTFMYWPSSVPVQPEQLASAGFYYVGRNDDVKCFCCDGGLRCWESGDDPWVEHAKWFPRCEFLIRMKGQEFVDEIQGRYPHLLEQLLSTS
From the text: as §1, §2, §3, §4, §5, §6, §7

Chain of XIAP-BIR3 (P98170 241-356 limits assumed): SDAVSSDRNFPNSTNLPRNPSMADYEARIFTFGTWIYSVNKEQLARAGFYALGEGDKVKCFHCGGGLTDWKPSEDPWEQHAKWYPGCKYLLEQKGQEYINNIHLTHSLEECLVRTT

For CN[C@@H](C)C(=O)N[C@H](C(=O)N1CCC[C@H]1c1cncc(-c2ccc(F)c(C(=O)NCc3ccc(CNC(=O)c4cc(-c5cncc([C@@H]6CCCN6C(=O)[C@@H](NC(=O)[C@H](C)NC)C6CCCCC6)c5)ccc4F)cc3)c2)c1)C1CCCCC1 [Example 2B-1, (S,S,S)—N,N′-(1,4-phenylenebis(methylene))bis(5-(5-((S)-1-((S)-2-cyclohexyl-2-((S)-2-(methylamino)propanamido)acetyl)pyrrolidin-2-yl)pyridin-3-yl)-2-fluorobenzamide)], which EC50 (XIAP-BIR3) is on record?
The EC50 was 347 to 353 nM.

And the IC50 (Panc3.27 tumor cells)?
The IC50 was < 0.0026 nM.

What about the EC50 (cIAP1-BIR3) of the same compound?
The EC50 was 0.77 to 0.79 nM.
